Common to all, as to assay type: cell-based
Holding throughout (conditions): alone or as component of the blend, 20 h at 36° C. in TSB

Assay [1] concerns Pseudomonas aeruginosa (strain ATCC 27853). Briefly: Broth dilution MIC and synergy index against Pseudomonas aeruginosa. How it is done:
(§1) Solutions containing carvacrol, thymol and salicylaldehyde were assessed for antimicrobial activity against three different reference microorganisms: • Gram negative bacteria—Escherichia coli (strain ATCC 8739) • Gram negative bacteria—Pseudomonas aeruginosa (strain ATCC 27853) • Gram positive bacteria—Staphylococcus aureus (strain ATCC6538)
(§2) The microorganisms were collected from the “Colección Española de Cultivos Tipo” (CECT), University of Valencia. They were collected in the form of a lyophilized inoculum and were refreshed by regular seeding in solid culture media. After the grown, the stock culture was kept under refrigeration. Prior to the analysis, the microorganisms were recultured 3-4 times by diluting colonies in tryptic soy broth (TSB) and incubating overnight at 36° C.
(§3) The day prior to the assay, the colonies are touched with a loop and transferred to tryptic soy broth (TBS) (100 mL). The broth is incubated at 36° C. overnight until the growth reaches a turbidity equal or similar to 10^9 colony-forming units per millilitre (CFU/mL). The culture is adjusted to give a turbidity equivalent to 0.18 absorbance units in order to confirm the inoculum is in the exponential growth phase (around 10^5-10^6 CFU/mL). The measurement is carried out by using a UV-VIS spectrometer, operating at 550 nm and a 1-cm path cell. […]
(§4) The antimicrobial efficacy of Carvacrol, Thymol and Salycylaldehyde and their blends, was determined as Minimum Inhibitory Concentration (MIC). MIC is recorded as the lowest product concentration that inhibits growth. […]
(§5) Where: • CM is the MIC of the substance n when used in a blend, that is, in combination with the rest of antimicrobial compounds analysed. • CS is the MIC of the substance when used alone.
(§6) SI below 1 indicates synergy effect and p-value has been calculated as the probability of obtaining the observed sample results (or a more extreme result) when the null hypothesis is actually true. […]

Assay [2] relates to Escherichia coli (strain ATCC 8739). Briefly: Broth dilution MIC and synergy index against Escherichia coli. As for the experimental part: as §1, §2, §3, §4, §5, §6
The test system of assay [3] is Staphylococcus aureus (strain ATCC6538). Briefly: Broth dilution MIC and synergy index against Staphylococcus aureus. How it is done: as §1, §2, §3, §4, §5, §6
A general note: Dilution methods test growth across graded concentrations, often in twofold steps.

The mark [4] stands for this setting: amount of salicylaldehyde at the MIC.

With `Cc1ccc(C(C)C)cc1O` [Carvacrol, carvacrol], in assay [1] (amount of carvacrol at the MIC), the “MIC Pseudomonas aeruginosa, Carvacrol” value was determined as 7.5 mg. In addition, in assay [2] (amount of carvacrol at the MIC), the “MIC Escherichia coli, Carvacrol” value is on record as 3 mg. Besides, the “MIC Staphylococcus aureus, Carvacrol” value in assay [3] (amount of carvacrol at the MIC) came to 2.1 mg.
Turning to `O=Cc1ccccc1O` [Salicylaldehyde, salicylaldehyde], the “MIC Pseudomonas aeruginosa, Salicylaldehyde” value in assay [1] (setting [4]) came out at 2.25 mg. In addition, the “MIC Escherichia coli, Salicylaldehyde” value in assay [2] (setting [4]) was determined as 4.75 mg. The “MIC Staphylococcus aureus, Salicylaldehyde” value in assay [3] (setting [4]) is listed as 4.75 mg.
With `Cc1ccc(C(C)C)c(O)c1` [Thymol, thymol], the “MIC Pseudomonas aeruginosa, Thymol” value in assay [1] (amount of thymol at the MIC) was 4.5 mg. In addition, in assay [2] (amount of thymol at the MIC), the “MIC Escherichia coli, Thymol” value stood at 2 mg. Besides, the “MIC Staphylococcus aureus, Thymol” value in assay [3] (amount of thymol at the MIC) was found to be 1.1 mg.

(Values after US20160325911A1, “ANTIMICROBIAL COMPOSITIONS FOR FOOD PACKAGING CONSISTING OF SALICYLALDEHYDE AND CARVACROL, THYMOL OR THEIR MIXTURE” (INSTITUTO TECNOLÓGICO DEL EMBALAJE, TRANSPORTE Y LOGÍSTICA, priority 2014, published 2016).)
